According to paper PMC6720825, “Thiol-ene "Click" Synthesis and Pharmacological Evaluation of C-Glycoside sp^2-Iminosugar Glycolipids” (Molecules, 2019):
“Also recorded” adds a separate entry of the source. Read-outs that look alike come from different tables or passages of the source.

Key:
[1] = test system: human solid tumor cell lines A549, SW1573 (lung), HBL-100, T-47D (breast), HeLa (cervix), WiDr (colon); assay: Antiproliferative activity (SRB assay) against a panel of six human solid tumor cell lines; format: cell-based; details: for GI50: read-out: GI50 (concentration to achieve 50% growth inhibition), 48 h, tested 1 to 100 μM, only values below 100 μM significant; for GI50 (concentration to achieve 50% growth inhibition): 48 h, tested 1 to 100 μM, only values below 100 μM significant
Protocol: The antiproliferative activity of all the sp^2-iminosugar C-glycosides (1–12) was evaluated against a panel of six representative human solid tumor cell lines including lung (A549 and SW1573), breast (HBL-100, T-47D), cervix (HeLa), and colon (WiDr).
All reagents were used as purchased from commercial suppliers without further purification. The human solid tumor cell lines A549 (lung), HBL-100 (breast), HeLa (cervix), SW1573 (lung), T-47D (breast), and WiDr (colon) were used in this study. These cell lines were a kind gift from Prof. G. J. Peters (VU Medical Center, Amsterdam, The Netherlands).
Cells were inoculated onto 96-well microtiter plates in a volume of 100 μL per well at densities of 2500 (A549, HBL-100, HeLa, and SW1573) and 5000 (T-47D and WiDr) cells per well, based on their doubling times. Compounds were initially dissolved in DMSO at 400 times the desired final maximum test concentration. Control cells were exposed to an equivalent concentration of DMSO (0.25% v/v, negative control). Each agent was tested in triplicate at different dilutions in the range of 1 to 100 μM. The drug treatment started on day 1 after plating. Drug incubation times were 48 h, after which cells were precipitated with 25 μL ice-cold TCA (50% w/v) and fixed for 60 min at 4 °C. Then the SRB assay was performed. The optical density (OD) of each well was measured at 530 nm, using BioTek’s PowerWave XS Absorbance Microplate Reader. Values were corrected for background OD from wells only containing medium. The antiproliferative activity for each compound, expressed as GI50 values, was calculated according to NCI formulas.

[2] = test system: human lung fibroblast MRC-5 cells; assay: Cellular toxicity (MTT assay) in MRC-5 cells; format: cell-based; details: for EC50: Homo sapiens, MRC5, MTT assay, 72 h at 37 °C; for SI (EC50 MRC-5/EC50 parasite): Selectivity Index
THP-1 cells = assay: Cellular toxicity (MTT assay) in THP-1 cells; format: cell-based, human; details: for EC50: Homo sapiens, THP-1, MTT assay, 72 h at 37 °C; for SI (EC50 THP-1/EC50 parasite): Selectivity Index
Protocol: Human myelomonocytic cell line THP-1 was grown at 37 °C and 5% CO2 in RPMI-1640 supplemented with 10% iFBS, 2 mM […], 100 U/mL penicillin, and 100 μg/mL streptomycin; 3 × 10^4 cells/well in 96-well plates were differentiated to macrophages with 20 ng/mL of PMA treatment for 48 h followed by 24 h of culture in fresh medium. Cellular toxicity of all compounds was determined using the colorimetric MTT-based assay after incubation at 37 °C for 72 h in the presence of increasing concentrations of compounds [71].

[3] = test system: intracellular amastigotes of Leishmania donovani MHOM/ET/67/HU3 line; assay: Susceptibility of intracellular Leishmania amastigotes (luciferase assay); format: cell-based; details: L. donovani in THP-1 macrophages, 72 h at 37 °C, threshold 20 μM
Protocol: The leishmanicidal activity of all the synthesized sp^2-iminosugar C-glycosides (1–12) was evaluated against intracellular amastigotes of Leishmania donovani MHOM/ET/67/HU3 line with luciferase gene integrated into the parasite genome. […] A strong influence of the nature of the lipid chain α-linked to the pseudoanomeric position of the bicyclic core in the sp^2-IGLs was inferred from the corresponding data. […] The longer-chain sp^2-IGLs 2 and 8 were over the 20 μM concentration threshold in this assay. In the sulfone series, the results evidenced some disparity between the ONJ and OGJ epimers.
Macrophage-differentiated THP-1 cells, which are considered a suitable model for human macrophages, were plated at a density of 3 × 10^4 or 3 × 10^5 macrophages/well in 96-well white polystyrene microplates or 24-well tissue culture chamber slides, respectively, and were infected at a macrophage/parasite ratio of 1:10 with L. donovani promastigotes. Twenty-four hours after infection at 35 °C and 5% CO2, extracellular parasites were removed by washing with serum-free medium. Infected cell cultures were then incubated at different compound concentrations in RPMI 1640 medium plus 10% iFBS at 37 °C with 5% CO2 for 72 h. To determine the susceptibility of L. donovani LUC amastigotes, infected macrophages maintained in 96-well plates were lysed and then luminescence intensity was measured as indicative of the intracellular parasite growth, using the Luciferase Assay System Kit (Promega, Madison, Wis.) according to the instructions of the supplier. To determine the susceptibility of L. donovani HU3 amastigotes, infected macrophages maintained in 24-well plates were fixed for 30 min at 4 °C with 2.5% paraformaldehyde phosphate-buffered saline (PBS; 1.2 mM KH2PO4, 8.1 mM Na2HPO4, 130 mM NaCl, and 2.6 mM KCl adjusted to pH 7) and permeabilized with 0.1% Triton X-100 in PBS for 30 min. Intracellular parasites and macrophages were detected by nuclear staining with ProLong® Gold antifade reagent plus DAPI (Invitrogen). The percentage infection and mean number of amastigotes from infected macrophages were determined with 200 macrophages/well.

α-Glcase (Yeast Maltase) = target: T1, α-Glcase (Yeast Maltase) (Saccharomyces cerevisiae, UniProt P53341); assay: Glycosidase inhibition (Ki), yeast maltase α-glucosidase; format: biochemical
T1 construct: purchased
T1 sequence (P53341 whole entry): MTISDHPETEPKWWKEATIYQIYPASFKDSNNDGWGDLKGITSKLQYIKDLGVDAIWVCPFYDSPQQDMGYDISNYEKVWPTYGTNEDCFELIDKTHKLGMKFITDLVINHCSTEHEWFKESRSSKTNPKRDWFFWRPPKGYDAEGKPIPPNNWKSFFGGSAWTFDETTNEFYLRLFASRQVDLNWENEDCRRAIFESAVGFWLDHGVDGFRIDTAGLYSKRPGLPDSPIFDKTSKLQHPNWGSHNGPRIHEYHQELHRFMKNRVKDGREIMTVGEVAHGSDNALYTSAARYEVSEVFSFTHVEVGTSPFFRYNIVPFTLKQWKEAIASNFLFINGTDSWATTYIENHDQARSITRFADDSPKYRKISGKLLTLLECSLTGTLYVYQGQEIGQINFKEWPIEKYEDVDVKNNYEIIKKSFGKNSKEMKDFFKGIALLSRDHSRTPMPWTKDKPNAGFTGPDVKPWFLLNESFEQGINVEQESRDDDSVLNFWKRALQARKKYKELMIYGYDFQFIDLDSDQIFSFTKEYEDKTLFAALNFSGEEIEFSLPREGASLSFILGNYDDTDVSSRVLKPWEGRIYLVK
Source text: The inhibitory properties of the new sp^2-IGLs 1–12 and the α-C-allyl ONJ and OGJ glycosides 15, and 24 were examined against a panel of commercial glycosidases that included the α-glucosidases maltase (Saccharomyces cerevisiae) and amyloglucosidase (Aspergillus niger), the β-glucosidases from almonds and bovine liver, α-galactosidase from green coffee beans, β-galactosidase from Escherichia coli, α-mannosidase from Jack beans, and β-mannosidase from Helix pomatia. The corresponding inhibition constant (Ki) values are collected in Table 1.
Inhibition constant (Ki) values were determined by spectrophotometrically measuring the residual hydrolytic activities of the glycosidases against the respective o- (for β-galactosidase from E. coli) or p-nitrophenyl α- or β-D-glycopyranoside (for other glycosidases) in the presence of the iminosugars. Each assay was performed in phosphate buffer or phosphate-citrate buffer (for α- or β-mannosidase and amyloglucosidase) at the optimal pH for the enzymes. The reactions were initiated by addition of the enzyme to a solution of the substrate in the absence or presence of various inhibitor concentrations. The mixture was incubated for 10–30 min at 37 °C or 55 °C (for amyloglucosidase) and the reaction was quenched by addition of 1 M Na2CO3. Reaction times were appropriate to obtain 10–20% conversion of the substrate in order to achieve linear rates. The absorbance of the resulting mixture was determined at 405 nm. Approximate value of Ki was determined from the slope of Dixon plots using a fixed concentration of substrate (around the Km value for the different glycosidases) and various concentrations of inhibitor. Full Ki determinations and enzyme inhibition mode were determined from the slope of Lineweaver–Burk plots and double reciprocal analysis. Representative examples of Dixon and Lineweaver–Burk plots are shown in the Supplementary materials.

[4] = mean ± SD, three independent determinations, competitive inhibition
[5] = mean ± SD, three independent determinations, competitive inhibition, read-out: Ki, α-Glcase (Yeast Maltase)

Row | Structure (SMILES) | GI50 [1] [µM] | EC50 [2] [µM] | SI (EC50 MRC-5/EC50 parasite) [2] | EC50 (THP-1 cells) [µM] | EC50 [3] [µM] | Ki, α-Glcase (Yeast Maltase) (α-Glcase (Yeast Maltase); [4]) | SI (EC50 THP-1/EC50 parasite) (THP-1 cells) | Ki (α-Glcase (Yeast Maltase); [5]) [µM] | GI50 (concentration to achieve 50% growth inhibition) [1] | Ki (α-Glcase (Yeast Maltase)) [µM]
1 | CCCCCCCCS(=O)(=O)CCC[C@@H]1[C@H](O)[C@@H](O)[C@@H](O)[C@H]2COC(=O)N12 [Compound 10, (1R)-1-[3-(Octylsulfonyl)propyl]-5N,6O-oxomethylidene-1-deoxygalactonojirimycin] | > 100 | 185 ± 21.2 | 13.40 | > 200 | 13.8 ± 1.72 | n.i. | – | – | – | –
2 | CCCCCCCCSCCC[C@@H]1[C@H](O)[C@@H](O)[C@H](O)[C@H]2COC(=O)N12 [Compound 1, (1R)-1-[3-(Octylthio)propyl)-5N,6O-oxomethylidene-1-deoxynojirimycin] | 14 to 54 | 32.2 ± 1.03 | 4.19 | 131 ± 4.29 | 7.68 ± 0.29 | – | 17.06 | 0.34 ± 0.02 | – | –
3 | CCCCCCCCCCCCS(=O)(=O)CCC[C@@H]1[C@H](O)[C@@H](O)[C@@H](O)[C@H]2COC(=O)N12 [Compound 11, (1R)-1-[3-(Dodecylsulfonyl)propyl]-5N,6O-oxomethylidene-1-deoxygalactonojirimycin] | 26 to 82 | 162 ± 20.2 | < 8.10 | > 200 | > 20 | n.i. | – | – | – | –
4 | CCCCCCCCCCCCSCCC[C@@H]1[C@H](O)[C@@H](O)[C@@H](O)[C@H]2COC(=O)N12 [Compound 8, (1R)-1-[3-(Dodecylthio)propyl]-5N,6O-oxomethylidene-1-deoxygalactonojirimycin] | 9.6 to 19 | 32.1 ± 1.94 | < 1.60 | 68.3 ± 3.04 | > 20 | did not inhibit and n.i. | < 3.42 | – | – | –
5 | CCCCCCCCS(=O)(=O)CCC[C@@H]1[C@H](O)[C@@H](O)[C@H](O)[C@H]2COC(=O)N12 [Compound 4, (1R)-1-[3-(Octylsulfonyl)propyl]-5N,6O-oxomethylidene-1-deoxynojirimycin] | > 100 | 189 ± 15.6 | < 9.45 | > 200 | > 20 | – | – | 2.6 ± 0.3 | – | –
6 | C[C@@H]1[C@H](O)[C@@H](C)/C=C/C=C/C=C/C=C/C=C/C=C/C=C/[C@H](O[C@@H]2O[C@H](C)[C@@H](O)[C@H](N)[C@@H]2O)C[C@@H]2O[C@](O)(C[C@@H](O)C[C@@H](O)[C@H](O)CC[C@@H](O)C[C@@H](O)CC(=O)O[C@H]1C)C[C@H](O)[C@H]2C(=O)O [AmB, amphotericin B, reference compound] | – | 16.9 ± 2.44 | 112.87 | 20.1 ± 4.43 | 0.15 ± 0.01 | – | 133.80 | – | – | –
7 | CC(C)(C)OC(=O)NCCSCCC[C@@H]1[C@H](O)[C@@H](O)[C@H](O)[C@H]2COC(=O)N12 [Compound 3, (1R)-1-[3-(N-tert-Butoxycarbonylaminoethylthio)propyl]-5N,6O-oxomethylidene-1-deoxynojirimycin] | > 100 | 134 ± 6.02 | 8.95 | > 200 | 15 ± 1.28 | – | – | – | did not show any significant antiproliferative activity; also recorded: out of range; also recorded: did not display significant antiproliferative activity | 0.28 ± 0.02
8 | CCCCCCCCCCCCS(=O)(=O)CCC[C@@H]1[C@H](O)[C@@H](O)[C@H](O)[C@H]2COC(=O)N12 [Compound 5, (1R)-1-[3-(Dodecylsulfonyl)propyl]-5N,6O-oxomethylidene-1-deoxynojirimycin] | 26 to 82 | 71.5 ± 3.75 | 6.25 | 100 ± 10.9 | 11.4 ± 5.08 | – | 8.78 | 2.5 ± 0.2 | – | –
9 | CCCCCCCCCCCCSCCC[C@@H]1[C@H](O)[C@@H](O)[C@H](O)[C@H]2COC(=O)N12 [Compound 2, (1R)-1-[3-(Dodecylthio)propyl]-5N,6O-oxomethylidene-1-deoxynojirimycin] | 9.6 to 19 | 19.9 ± 2.76 | < 1 | 72.2 ± 4.18 | > 20 | nanomolar competitive inhibitor | < 3.61 | 0.74 ± 0.03 | – | –
10 | CC(C)(C)OC(=O)NCCS(=O)(=O)CCC[C@@H]1[C@H](O)[C@@H](O)[C@@H](O)[C@H]2COC(=O)N12 [Compound 12, (1R)-1-[3-(N-tert-Butoxycarbonylaminoethylsulfonyl)propyl]-5N,6O-oxomethylidene-1-deoxygalactonojirimycin] | > 100 | 182 ± 14.9 | < 9.08 | > 200 | > 20 | n.i. | – | – | did not show any significant antiproliferative activity | –
11 | CC(C)(C)OC(=O)NCCS(=O)(=O)CCC[C@@H]1[C@H](O)[C@@H](O)[C@H](O)[C@H]2COC(=O)N12 [Compound 6, (1R)-1-[3-(N-tert-Butoxycarbonylaminoethylsulfonyl)propyl]-5N,6O-oxomethylidene-1-deoxynojirimycin] | > 100 | 155 ± 3.1 | < 7.76 | > 200 | > 20 | – | – | 0.75 ± 0.02 | did not show any significant antiproliferative activity | –
